Data on 2 molecules can be found in patent US8628864B2, “Indolo[3,2,1-jk]carbazole compound and organic light-emitting device containing the same” (Canon Kabushiki Kaisha, priority 2010, dated 2014).

Assay type in all cases: physicochemical
The nature of series [1]: Ionization potential of evaporated thin film, photoelectron spectrometer AC-3. As to the method:
The ionization potential of the evaporated thin film used in the measurement of the energy gap described above was measured with a photoelectron spectrometer AC-3 (manufactured by Riken Keiki Co., Ltd.). The ionization potential of the exemplary compound C-1 was 6.01 eV.

Series [2] in a line: Color of evaporated film on glass substrate left to stand in the air. The conditions noted are these: in the air at room temperature, approximately two hours.
Series [3] in a line: Solubility: amount of chlorobenzene required to dissolve 10 mg of compound. The note with it: 10 mg compound. The protocol: The amount of chlorobenzene required to dissolve 10 mg of the exemplary compound C-1 was determined. As a result, the amount of chlorobenzene required to dissolve 10 mg of the exemplary compound C-1 was 1 ml or less.

Molecule `c1ccc2c(c1)c1cc(-c3cc(-c4cc5c6ccccc6n6c7ccccc7c(c4)c56)cc(-c4cc5c6ccccc6n6c7ccccc7c(c4)c56)c3)cc3c4ccccc4n2c13` [FH-01] displayed an Ionization potential in series [1] of 5.83 eV. For the same molecule, the “Color of film 2 h after film formation” value in series [2] is given as “pale yellowish brown”. Further, in series [3], the “Amount of chlorobenzene required to dissolve 10 mg of compound” value is recorded as 50 or more ml.

As to `c1ccc2c(c1)c1cc(-c3ccc(-c4cc5c6ccccc6n6c7ccccc7c(c4)c56)cc3)cc3c4ccccc4n2c13` [FH-02], the Ionization potential in series [1] turned out to be 5.72 eV. In addition, the “Color of film 2 h after film formation” value in series [2] was “pale yellowish brown”. Also, the “Amount of chlorobenzene required to dissolve 10 mg of compound” value in series [3] turned out to be 10 mL.
